Measured values as given in ChEMBL document CHEMBL5291721, “A preclinical secondary pharmacology resource illuminates target-adverse drug reaction associations of marketed drugs” (Nat Commun, 2023).

Assays:
[1] = target: T1, Alpha-1A adrenergic receptor (Homo sapiens, UniProt P35348); format: functional, cell-based
T1 sequence (P35348 whole entry): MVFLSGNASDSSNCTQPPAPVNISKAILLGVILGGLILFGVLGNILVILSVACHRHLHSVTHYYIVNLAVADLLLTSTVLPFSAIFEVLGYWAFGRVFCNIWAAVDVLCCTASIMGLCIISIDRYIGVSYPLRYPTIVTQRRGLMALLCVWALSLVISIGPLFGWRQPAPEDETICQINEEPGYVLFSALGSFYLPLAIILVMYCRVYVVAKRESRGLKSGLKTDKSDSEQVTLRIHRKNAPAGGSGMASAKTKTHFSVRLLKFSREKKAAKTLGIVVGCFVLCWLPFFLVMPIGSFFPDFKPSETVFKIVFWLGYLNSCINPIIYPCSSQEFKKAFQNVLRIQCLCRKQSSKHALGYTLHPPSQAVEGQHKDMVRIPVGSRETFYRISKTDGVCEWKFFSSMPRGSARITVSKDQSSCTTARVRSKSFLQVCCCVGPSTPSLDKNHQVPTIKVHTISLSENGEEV

[2] = target: 3',5'-cyclic-AMP phosphodiesterase 4A (Homo sapiens, UniProt P27815); format: functional
[3] = target: T2, Muscarinic acetylcholine receptor M1 (Homo sapiens, UniProt P11229); format: functional, cell-based
T2 sequence (P11229 whole entry): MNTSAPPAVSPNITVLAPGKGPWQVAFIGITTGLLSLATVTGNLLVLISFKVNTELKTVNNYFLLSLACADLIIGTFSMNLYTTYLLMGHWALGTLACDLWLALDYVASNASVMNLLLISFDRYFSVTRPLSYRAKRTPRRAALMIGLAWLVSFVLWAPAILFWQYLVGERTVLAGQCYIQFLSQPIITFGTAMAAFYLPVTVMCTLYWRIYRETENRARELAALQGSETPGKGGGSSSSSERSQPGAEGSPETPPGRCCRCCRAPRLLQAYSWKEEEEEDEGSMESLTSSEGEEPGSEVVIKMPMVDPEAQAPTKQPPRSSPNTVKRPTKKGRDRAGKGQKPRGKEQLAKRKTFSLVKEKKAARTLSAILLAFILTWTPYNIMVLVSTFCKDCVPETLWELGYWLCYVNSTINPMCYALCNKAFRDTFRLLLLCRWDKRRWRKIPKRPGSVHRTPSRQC

[4] = target: T2, Muscarinic acetylcholine receptor M1; format: functional, cell-based; remark: listed apart in the source
[5] = target: Vascular endothelial growth factor receptor 2 (Homo sapiens, UniProt P35968); format: functional
Further: assay procedure not described here.

3',5'-cyclic-AMP phosphodiesterase 4A, sequence (P27815 whole entry): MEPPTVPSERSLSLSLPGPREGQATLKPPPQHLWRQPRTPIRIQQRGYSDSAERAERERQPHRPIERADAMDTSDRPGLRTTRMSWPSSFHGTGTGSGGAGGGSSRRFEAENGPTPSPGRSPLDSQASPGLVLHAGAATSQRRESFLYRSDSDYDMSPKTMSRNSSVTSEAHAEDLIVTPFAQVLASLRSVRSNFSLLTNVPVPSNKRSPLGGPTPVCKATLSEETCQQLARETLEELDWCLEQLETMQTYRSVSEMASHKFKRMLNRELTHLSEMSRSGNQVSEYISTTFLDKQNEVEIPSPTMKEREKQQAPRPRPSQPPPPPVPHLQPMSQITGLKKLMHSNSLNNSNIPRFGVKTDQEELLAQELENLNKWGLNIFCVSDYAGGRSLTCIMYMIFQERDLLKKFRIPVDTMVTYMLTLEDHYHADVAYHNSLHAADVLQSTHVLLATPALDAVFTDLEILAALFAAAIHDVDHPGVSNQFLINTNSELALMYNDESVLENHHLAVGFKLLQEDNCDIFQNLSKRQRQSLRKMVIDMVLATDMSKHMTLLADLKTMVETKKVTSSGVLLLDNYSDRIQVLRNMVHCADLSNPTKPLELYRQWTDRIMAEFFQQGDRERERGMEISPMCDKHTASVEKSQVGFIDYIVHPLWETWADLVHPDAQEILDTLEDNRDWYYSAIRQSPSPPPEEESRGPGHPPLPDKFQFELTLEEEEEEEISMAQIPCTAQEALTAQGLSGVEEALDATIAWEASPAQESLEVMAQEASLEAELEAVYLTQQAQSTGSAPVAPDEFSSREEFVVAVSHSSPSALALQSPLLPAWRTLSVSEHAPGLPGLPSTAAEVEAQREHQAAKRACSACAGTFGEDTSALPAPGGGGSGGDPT
Vascular endothelial growth factor receptor 2, sequence (P35968 whole entry): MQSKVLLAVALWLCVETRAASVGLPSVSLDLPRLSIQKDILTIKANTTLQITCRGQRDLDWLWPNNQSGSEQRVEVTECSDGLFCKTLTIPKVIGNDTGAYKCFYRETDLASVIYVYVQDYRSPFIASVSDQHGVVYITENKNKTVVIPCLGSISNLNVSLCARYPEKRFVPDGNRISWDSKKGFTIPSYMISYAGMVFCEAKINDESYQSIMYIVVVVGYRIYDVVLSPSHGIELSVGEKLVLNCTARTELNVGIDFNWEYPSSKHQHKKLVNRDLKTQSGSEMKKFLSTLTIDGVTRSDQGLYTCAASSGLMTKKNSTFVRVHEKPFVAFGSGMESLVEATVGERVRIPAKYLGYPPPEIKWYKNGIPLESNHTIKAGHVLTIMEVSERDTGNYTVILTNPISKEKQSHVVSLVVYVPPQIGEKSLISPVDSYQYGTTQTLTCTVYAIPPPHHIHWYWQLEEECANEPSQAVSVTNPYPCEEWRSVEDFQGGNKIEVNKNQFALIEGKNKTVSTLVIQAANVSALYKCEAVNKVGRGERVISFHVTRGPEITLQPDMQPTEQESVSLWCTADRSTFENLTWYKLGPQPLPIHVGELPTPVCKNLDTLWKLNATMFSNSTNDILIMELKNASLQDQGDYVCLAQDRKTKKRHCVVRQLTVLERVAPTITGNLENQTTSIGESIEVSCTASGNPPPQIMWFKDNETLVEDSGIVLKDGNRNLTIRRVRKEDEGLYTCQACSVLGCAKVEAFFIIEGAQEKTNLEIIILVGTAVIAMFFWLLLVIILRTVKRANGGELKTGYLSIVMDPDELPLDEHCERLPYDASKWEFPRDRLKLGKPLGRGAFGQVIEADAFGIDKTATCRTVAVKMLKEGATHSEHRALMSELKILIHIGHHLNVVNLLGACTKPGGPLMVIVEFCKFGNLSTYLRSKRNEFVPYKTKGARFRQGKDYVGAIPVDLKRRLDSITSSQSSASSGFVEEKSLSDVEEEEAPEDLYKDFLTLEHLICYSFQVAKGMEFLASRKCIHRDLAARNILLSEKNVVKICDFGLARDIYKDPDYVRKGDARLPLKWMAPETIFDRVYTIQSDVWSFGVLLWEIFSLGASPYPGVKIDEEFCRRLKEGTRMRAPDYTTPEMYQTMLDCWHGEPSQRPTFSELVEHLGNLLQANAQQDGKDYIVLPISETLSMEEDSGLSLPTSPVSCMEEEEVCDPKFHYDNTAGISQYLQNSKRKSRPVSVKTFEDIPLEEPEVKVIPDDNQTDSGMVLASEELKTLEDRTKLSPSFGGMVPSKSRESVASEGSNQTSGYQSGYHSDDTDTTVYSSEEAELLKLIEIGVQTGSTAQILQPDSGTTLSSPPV

Row | SMILES | AC50 [1] [µM] | AC50 [2] [µM] | AC50 [3] [µM] | AC50 [4] [µM] | AC50 [5] [µM]
1 | CC(C1=C(CCN(C)C)Cc2ccccc21)c1ccccn1 (stereo not given) | 8.8 | > 30 | 7.57 | > 30 | > 30
2 | C[C@H](N)C(=O)O [ALANINE] | > 30 | > 30 | > 30 | > 30 | > 30
3 | O=C1c2c(O)cccc2Cc2cccc(O)c21 [ANTHRALIN] | > 30 | 0.262 | > 30 | > 30 | 6.14
4 | COC(=O)C1=C(C)NC(C)=C(C(=O)O[C@H]2CCN(Cc3ccccc3)C2)[C@H]1c1cccc([N+](=O)[O-])c1 [BARNIDIPINE] | 1.31 | > 30 | 4.07 | > 30 | > 30
5 | CCCCOc1ccc(CC(=O)NO)cc1 [BUFEXAMAC] | > 30 | 0.53 | > 30 | > 30 | > 30
6 | Cc1nnc(SCC2=C(C(=O)O)N3C(=O)[C@@H](NC(=O)Cn4cc(Cl)c(=O)c(Cl)c4)[C@H]3SC2)s1 [CEFAZEDONE] | > 30 | 28.1 | > 30 | > 30 | 10.1
7 | Nc1ncnc(Nc2ccc(Cl)cc2)n1 [CHLORAZANIL] | > 30 | 19.7 | > 30 | > 30 | 15
8 | CCC[C@@H]1C[C@@H](C(=O)N[C@@H]([C@H]2O[C@H](SC)[C@H](OP(=O)(O)O)[C@@H](O)[C@H]2O)[C@H](C)Cl)N(C)C1 [CLINDAMYCIN PHOSPHATE] | > 30 | > 30 | > 30 | > 30 | > 30
9 | Cc1onc(-c2c(Cl)cccc2Cl)c1C(=O)N[C@@H]1C(=O)N2[C@@H]1SC(C)(C)[C@@H]2C(=O)O [DICLOXACILLIN] | > 30 | > 30 | > 30 | > 30 | > 30
10 | C[C@@H](O)[C@H]1C(=O)N2C(C(=O)O)=C([C@H]3CCCO3)S[C@H]12 [FAROPENEM] | > 30 | > 30 | > 30 | > 30 | > 30
11 | CCOC(=O)c1ccc(OC(=O)CCCCCNC(=N)N)cc1 [GABEXATE] | > 30 | > 30 | > 30 | > 30 | > 30
12 | CCCCC/C=C\C/C=C\C/C=C\CCCCC(=O)O [GAMOLENIC ACID] | > 30 | > 30 | > 30 | > 30 | > 30
13 | COCCOc1cnc(NS(=O)(=O)c2ccccc2)nc1 [GLYMIDINE] | > 30 | > 30 | > 30 | > 30 | > 30
14 | CC(N)CCCC(C)(C)O (stereo not given) [HEPTAMINOL] | > 30 | > 30 | > 30 | > 30 | > 30
15 | CCC(=O)O[C@]1(C(=O)COC(C)=O)CC[C@H]2[C@@H]3CCC4=CC(=O)CC[C@]4(C)[C@H]3[C@@H](O)C[C@@]21C [HYDROCORTISONE ACEPONATE] | > 30 | > 30 | 19.3 | > 30 | > 30
16 | O=[N+]([O-])O[C@H]1CO[C@H]2[C@@H]1OC[C@H]2O[N+](=O)[O-] [ISOSORBIDE DINITRATE] | > 30 | > 30 | > 30 | > 30 | > 30
17 | NC(=O)NCCC[C@H](N)C(=O)O [L-CITRULLINE] | > 30 | > 30 | > 30 | > 30 | > 30
